Data as given in patent publication EP2573108A1, “Methods for identifying compounds capable of inhibiting degradation of PKM zeta” (SYGNIS Bioscience GmbH & Co KG, priority 2011, dated 2013).
Like-named read-outs stand apart in the source and are kept apart here. Where a SMILES comes first, the peptide text is derived from it. The star is where a group is joined. Cbz = O=C(OCc1ccccc1)*

Key:
KIBRA- PKM zeta complex = conditions: for displacement of KIBRA from a pre-formed complex with PKM zeta: COS lysates, Fig. 4f
Experimental: (§1) Starting from aa 882, increasing 20aa stretches of KIBRA were deleted and constructs were tested for interaction with FLAG-tagged PKM zeta. […] PKM zeta-flag expression constructs were co-transfected with EGFP-fusion constructs containing the 956-975 PKM zeta binding motif. Amino acids from position 964 to 974 were mutated to Alanin. […] Increasing concentrations of the peptide were added to COS-lysates co-expressing KIBRA and FLAG- PKM zeta before pull-down with anti-FLAG beads. […] The C-terminal serine residues that can be phosphorylated by PKM zeta in vitro were mutated to alanine or glutamate. […] Neurons were infected with a KIBRA-EGFP fusion constructs.
(§2) Co-immunoprecipitation. 2d after electroporation, cells were washed twice with ice-cold 1xPBS, and lyesd (50 mM Tris/HCl pH 7.4, 150 mM NaCl, 0.5% NP40, 20 mM NaF, 2 mM EDTA, 2 mM EGTA, 2 mM orthovanadate, protease inhibitor cocktail) at 4°C. Lysate was incubated with anti-flag beads (Sigma) at 4 °C for 2h, 5µl of peptide solution was added as indicated. Protein was released by 1x SDS loading buffer (without reducing reagents) (95 °C for 5min).
(§3) In more detail, 2d after electroporation, COS cells were washed twice with ice-cold IxPBS, and protein extraction was carried out by lysis of cells with lysis-buffer (50 mM Tris/HCl pH 7.4, 150 mM NaCl, 0.5% NP40, 20 mM NaF, 2 mM EDTA, 2 mM EGTA, 2 mM orthovanadate, protease inhibitor cocktail) at 4 °C. After incubation for 20 min at 4°C, the lysate was spun down at 13500 rpm at 4 °C for 10 min. One part of the supernatant was kept for direct Western analysis (lysate).

PKM zeta [1] = conditions: PKM zeta expressed in COS cells, Fig. 4e
Experimental: as §1, §2, §3

PKM zeta [2] = experiment: PKM zeta protein stability after translation block with cycloheximide (Western blot), COS cells; format: cell-based; conditions: up to 48 h
Experimental: Electroporation of COS1 cells. COS1 cells were cultured in Dulbecco's modified eagle medium (DMEM) high glucose supplemented with 10% fetal calf serum (FCS). Cells were transfected with appropriate plasmids as indicated in the result section. For electroporation, COS-1 cells were harvested and resuspended in electroporation (EP)-buffer (50 mM K2HPO4, 20 mM CH3COOK, 20 mM KOH, pH 7.4) at a densitiy of 3.5x10^6 cells per transfection. After addition of 25 mM MgSO4, cells were mixed with 10 µg of plasmid-DNA (ratio of pulled down plasmid to co-expressed plasmid was 1:4; pure co-expression of two plasmids was performed in a ratio of 1:2) and transferred to an electroporation cuvette. Electroporation was performed in a Biorad Gene Pulsar II electroporator at 500 µF capacitance and 230 V, and cells were transferred into DMEM supplemented with 10% FCS and plated immediately. 48 h after transfection, cells were harvested for Co-IP. To perform western blot analysis, cells were stimulated 24 h after transfection for the indicated time points with cycloheximide and MG-132, respectively.
Western blotting. […] After syringing the lysate 5x, lysate was spun down at 13000 rpm at 4 °C for 10 min and the protein concentration of the supernate was determined (BCA-Test, Pierce). […] For quantification of scanned autoradiographs Windows ImageJ (NIH, Bethesda, MD,USA) was used.

PKM zeta [3] = experiment: PKM zeta protein stability after translation block with cycloheximide (Western blot), SHSY-5Y cells; format: cell-based
Experimental: Western blotting. […] Lysates were frozen in liquid nitrogen and stored afterwards at -20°C. After syringing the lysate 5x, lysate was spun down at 13000 rpm at 4 °C for 10 min and the protein concentration of the supernate was determined (BCA-Test, Pierce). 1/5 volume of 5x sample-buffer (with β-Mercaptoethanol) was added and samples were denatured at 95 °C for 5 min. 50 µg of protein was run on a SDS-PAGE and proteins were transferred to nitrocellulose membranes using an iBlot™ Dry Blotting System (Invitrogen, Karlsruhe, Germany). […] For quantification of scanned autoradiographs Windows ImageJ (NIH, Bethesda, MD,USA) was used.

Compound	displacement of KIBRA from a pre-formed complex with PKM zeta (KIBRA- PKM zeta complex)	displacement of KIBRA from a pre-formed complex with PKM zeta (KIBRA- PKM zeta complex; listed as aa 948-978)	IC50 (KIBRA- PKM zeta complex; increasing concentrations of peptide added to COS-lysates co-expressing KIBRA and FLAG-PKM zeta before pull-down with anti-FLAG beads, estimated) [nM]	binding to PKM zeta (PKM zeta [1]; listed as aa 948-978)	binding to PKM zeta (PKM zeta [1]; listed as synthetic biotin-labeled peptide)	PKM zeta levels after CHX (PKM zeta [2])	PKM zeta levels after CHX (PKM zeta [3])
DSSTLSKKPPFVRNSLERRSVRMKRPSSVKS [synthetic peptide 948-978]	able to disrupt a preformed KIBRA- PKM zeta complex	able to displace KIBRA from a pre-formed complex with PKM zeta in a concentration-dependent manner	~60	sufficient for binding	able to bind PKM zeta		
CC(C)C[C@@H](C=O)NC(=O)[C@H](CC(C)C)NC(=O)[C@H](CC(C)C)NC(=O)OCc1ccccc1 [MG132] (Cbz-Leu-Leu-Leu-aldehyde)						prevented the time-dependent decrease in kinase levels	prevented the time-dependent decrease in kinase levels
